Measurements as given in article PMC11033320, “Activation of p53 signaling and regression of breast and prostate carcinoma cells by spirooxindole-benzimidazole small molecules” (Frontiers in Pharmacology, 2024).

Key:
[1] = system: SW-620; experiment: NCI anticancer screening, Colon Cancer SW-620; format: cell-based; conditions: Homo sapiens; SW-620, 10 μM; read-out: % Growth Inhibition (GI %)
Summary of the method: (§1)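 Processing was done per the standard DTP method, using the NCI-60 collection of human tumour cell lines.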

[2] = system: SK-MEL-2; experiment: NCI anticancer screening, Melanoma SK-MEL-2; format: cell-based; conditions: Homo sapiens; SK-MEL-2, 10 μM; read-out: % Growth Inhibition (GI %)
Summary of the method: as §1

[3] = system: 786-0; experiment: NCI anticancer screening, Renal Cancer 786-0; format: cell-based; conditions: Homo sapiens; 786-0, 10 μM; read-out: % Growth Inhibition (GI %)
Summary of the method: as §1

[4] = system: OVCAR-4; experiment: NCI anticancer screening, Ovarian Cancer OVCAR-4; format: cell-based; conditions: Homo sapiens; OVCAR-4, 10 μM; read-out: % Growth Inhibition (GI %)
Summary of the method: as §1

[5] = system: OVCAR-8; experiment: NCI anticancer screening, Ovarian Cancer OVCAR-8; format: cell-based; conditions: Homo sapiens; OVCAR-8, 10 μM; read-out: % Growth Inhibition (GI %)
Summary of the method: as §1

[6] = system: ACHN; experiment: NCI anticancer screening, Renal Cancer ACHN; format: cell-based; conditions: Homo sapiens, read-out: % Growth Inhibition (GI %)
Summary of the method: as §1

[7] = system: SF-268; experiment: NCI anticancer screening, CNS Cancer SF-268; format: cell-based; conditions: Homo sapiens; SF-268, 10 μM; read-out: % Growth Inhibition (GI %)
Summary of the method: as §1

[8] = system: SK-MEL-28; experiment: NCI anticancer screening, Melanoma SK-MEL-28; format: cell-based; conditions: Homo sapiens; SK-MEL-28, 10 μM; read-out: % Growth Inhibition (GI %)
Summary of the method: as §1

[9] = system: RXF 393; experiment: NCI anticancer screening, Renal Cancer RXF 393; format: cell-based; conditions: Homo sapiens; RXF 393, 10 μM; read-out: % Growth Inhibition (GI %)
Summary of the method: as §1

[10] = system: MDA-MB-435; experiment: NCI anticancer screening, Melanoma MDA-MB-435; format: cell-based; conditions: Homo sapiens; MDA-MB-435, 10 μM; read-out: % Growth Inhibition (GI %)
Summary of the method: as §1

[11] = system: CAKI-1; experiment: NCI anticancer screening, Renal Cancer CAKI-1; format: cell-based; conditions: Homo sapiens; CAKI-1, 10 μM; read-out: % Growth Inhibition (GI %)
Summary of the method: as §1

[12] = system: HCT-116; experiment: NCI anticancer screening, Colon Cancer HCT-116; format: cell-based; conditions: Homo sapiens; HCT-116, 10 μM; read-out: % Growth Inhibition (GI %)
Summary of the method: as §1

[13] = system: BT-549; experiment: NCI anticancer screening, Breast Cancer BT-549; format: cell-based; conditions: Homo sapiens; BT-549, 10 μM; read-out: % Growth Inhibition (GI %)
Summary of the method: as §1

[14] = system: DU-145; experiment: NCI anticancer screening, DU-145; format: cell-based; conditions: Homo sapiens; DU-145, 10 μM; read-out: % Growth Inhibition (GI %)
Summary of the method: as §1

[15] = system: NCI-H460; experiment: NCI anticancer screening, Non-Small Cell Lung Cancer NCI-H460; format: cell-based; conditions: Homo sapiens; NCI-H460, 10 μM; read-out: % Growth Inhibition (GI %)
Summary of the method: as §1

[16] = system: MOLT-4; experiment: NCI anticancer screening, Leukemia MOLT-4; format: cell-based; conditions: Homo sapiens; MOLT-4, 10 μM; read-out: % Growth Inhibition (GI %)
Summary of the method: as §1

[17] = system: MALME-3M; experiment: NCI anticancer screening, Melanoma MALME-3M; format: cell-based; conditions: Homo sapiens, read-out: % Growth Inhibition (GI %)
Summary of the method: as §1

[18] = system: NCI/ADR-RES; experiment: NCI anticancer screening, Ovarian Cancer NCI/ADR-RES; format: cell-based; conditions: Homo sapiens, read-out: % Growth Inhibition (GI %)
Summary of the method: as §1

[19] = system: SNB-19; experiment: NCI anticancer screening, CNS Cancer SNB-19; format: cell-based; conditions: Homo sapiens; SNB-19, 10 μM; read-out: % Growth Inhibition (GI %)
Summary of the method: as §1

[20] = system: RPMI-8226; experiment: NCI anticancer screening, Leukemia RPMI-8226; format: cell-based; conditions: Homo sapiens; RPMI-8226, 10 μM; read-out: % Growth Inhibition (GI %)
Summary of the method: as §1

[21] = system: TK-10; experiment: NCI anticancer screening, Renal Cancer TK-10; format: cell-based; conditions: Homo sapiens; TK-10, 10 μM; read-out: % Growth Inhibition (GI %)
Summary of the method: as §1

[22] = system: UO-31; experiment: NCI anticancer screening, Renal Cancer UO-31; format: cell-based; conditions: Homo sapiens; UO-31, 10 μM; read-out: % Growth Inhibition (GI %)
Summary of the method: as §1

[23] = system: PC-3 cells; experiment: MTT assay anticancer activity, PC-3; format: cell-based; conditions: Homo sapiens, PC-3, 5 µM, mean ± SEM, read-out: growth inhibition percentage of PC-3
Text: MTT method was done as described above.

[24] = system: EKVX; experiment: NCI anticancer screening, Non-Small Cell Lung Cancer EKVX; format: cell-based; conditions: Homo sapiens, read-out: % Growth Inhibition (GI %)
Summary of the method: as §1

[25] = system: IGROV1; experiment: NCI anticancer screening, Ovarian Cancer IGROV1; format: cell-based; conditions: Homo sapiens, IGROV-1; IGROV1, 10 μM; read-out: % Growth Inhibition (GI %)
Summary of the method: as §1

[26] = system: SR; experiment: NCI anticancer screening, Leukemia SR; format: cell-based; conditions: Homo sapiens, read-out: % Growth Inhibition (GI %)
Summary of the method: as §1

[27] = system: M14; experiment: NCI anticancer screening, Melanoma M14; format: cell-based; conditions: Homo sapiens; M14, 10 μM; read-out: % Growth Inhibition (GI %)
Summary of the method: as §1

[28] = system: SNB-75; experiment: NCI anticancer screening, CNS Cancer SNB-75; format: cell-based; conditions: Homo sapiens; SNB-75, 10 μM; read-out: % Growth Inhibition (GI %)
Summary of the method: as §1

[29] = system: HOP-92; experiment: NCI anticancer screening, Non-Small Cell Lung Cancer HOP-92; format: cell-based; conditions: Homo sapiens; HOP-92, 10 μM; read-out: % Growth Inhibition (GI %)
Summary of the method: as §1

[30] = system: K-562; experiment: NCI anticancer screening, Leukemia K-562; format: cell-based; conditions: Homo sapiens, K562; K-562, 10 μM; read-out: % Growth Inhibition (GI %)
Summary of the method: as §1

[31] = system: CCRF-CEM; experiment: NCI anticancer screening, Leukemia CCRF-CEM; format: cell-based; conditions: Homo sapiens, read-out: % Growth Inhibition (GI %)
Summary of the method: as §1

[32] = system: OVCAR-5; experiment: NCI anticancer screening, Ovarian Cancer OVCAR-5; format: cell-based; conditions: Homo sapiens; OVCAR-5, 10 μM; read-out: % Growth Inhibition (GI %)
Summary of the method: as §1

[33] = system: HCC-2998; experiment: NCI anticancer screening, Colon Cancer HCC-2998; format: cell-based; conditions: Homo sapiens; HCC-2998, 10 μM; read-out: % Growth Inhibition (GI %)
Summary of the method: as §1

[34] = system: MDA-MB 231 cells; conditions: for inhibition: 5 µM
Method: Anticancer effect of the above-mentioned compounds was assayed using three human cancer cell lines. Triple negative breast cancer cell line (MDA-MB 231) and prostate cancer cell line (PC3) were cultured in DMEM (Lonza, USA) supplemented with 10% FBS. All cancer cells (4x10^3 cells/well) were seeded in sterile 96-well plates. After 24h, serial concentrations of the tested compounds were incubated with three cancer cell lines for 72 h at 37 °C in 5% CO2 incubator. […] The half maximal inhibitory concentration (IC50) values were calculated using the Graphpad Instat software.

[35] = system: HOP-62; experiment: NCI anticancer screening, Non-Small Cell Lung Cancer HOP-62; format: cell-based; conditions: Homo sapiens; HOP-62, 10 μM; read-out: % Growth Inhibition (GI %)
Summary of the method: as §1

[36] = system: UACC-257; experiment: NCI anticancer screening, Melanoma UACC-257; format: cell-based; conditions: Homo sapiens; UACC-257, 10 μM; read-out: % Growth Inhibition (GI %)
Summary of the method: as §1

Row | Compound | inhibition at 10 µM [1] [%] | inhibition at 10 µM [2] [%] | inhibition at 10 µM [3] [%] | inhibition at 10 µM [4] [%] | inhibition at 10 µM [5] [%] | inhibition at 10 µM [6] [%] | inhibition at 10 µM [7] [%] | inhibition at 10 µM [8] [%] | inhibition at 10 µM [9] [%] | inhibition at 10 µM [10] [%] | inhibition at 10 µM [11] [%] | inhibition at 10 µM [12] [%] | inhibition at 10 µM [13] [%] | inhibition at 10 µM [14] [%] | inhibition at 10 µM [15] [%] | inhibition at 10 µM [16] [%] | inhibition at 10 µM [17] [%] | inhibition at 10 µM [18] [%] | inhibition at 10 µM [19] [%] | inhibition at 10 µM [20] [%] | also measured
1 | Cc1ccc([C@@H]2C3CSCN3[C@]3(C(=O)Nc4ccccc43)[C@H]2C(=O)c2nc3ccccc3[nH]2)cc1 (mixture of isomers) [Compound 6d, (3S,6′R)-6'-(1H-Benzo [d]imidazole-2-carbonyl)-7'-(p-tolyl)-3′,6′,7′,7a′-tetrahydro-1′H-spiro [indoline-3.5′-pyrrolo [1,2-c]thiazol]-2-one] | 92 | 93.6 | 86.1 | 62.4 | 95.9 | 88.9 | 64 | 98.8 | 57.1 | 70.6 | 54.5 | 74.5 | 96.2 | 106 | 84.5 | 78.5 | 85.3 | 86.2 | 80.3 | 80.3 | inhibition at 10 µM [21]: 94.5%; inhibition at 10 µM [22]: 54.3%; inhibition at 5 µM [23]: > 50%; inhibition at 10 µM [24]: 71.6%; inhibition at 10 µM [25]: 75%; inhibition at 10 µM [26]: 102%; inhibition at 10 µM [27]: 74.7%; inhibition at 10 µM [28]: 61.4%; inhibition at 10 µM [29]: 87%; inhibition at 10 µM [30]: 81.6%; inhibition at 10 µM [31]: 89.5%; inhibition at 10 µM [32]: 95.2%; inhibition at 10 µM [33]: 94.9%; IC50 [34]: 4.3 ± 0.137 µM; inhibition [34]: 51.7 ± 1.3%; inhibition at 10 µM [35]: 105%; inhibition at 10 µM [36]: 80.6%
2 | O=C(c1nc2ccccc2[nH]1)[C@H]1[C@H](c2ccc(Cl)cc2)C2CSCN2[C@]12C(=O)Nc1ccccc12 (stereo partly drawn) [Compound 6b, (3S,6′R)-6'-(1H-Benzo [d]imidazole-2-carbonyl)-7'-(4-chlorophenyl)-3′,6′,7′,7a′-tetrahydro-1′H-spiro [indoline-3.5′-pyrrolo [1,2-c]thiazol]-2-one] | 77 | 110 | 97.6 | 69.5 | 89.5 | 78.2 | 77.5 | 92.2 | 71.1 | 79.9 | 68.3 | 60.5 | 97 | 97.4 | 74.3 | 68.9 | 89.7 | 84.7 | 77.7 | 63.2 | inhibition at 10 µM [21]: 121%; inhibition at 10 µM [22]: 49%; inhibition at 5 µM [23]: 51.9%; inhibition at 10 µM [24]: 80.7%; inhibition at 10 µM [25]: 68.9%; inhibition at 10 µM [26]: 65.9%; inhibition at 10 µM [27]: 79.4%; inhibition at 10 µM [28]: 69.1%; inhibition at 10 µM [29]: 100%; inhibition at 10 µM [30]: 82.3%; inhibition at 10 µM [31]: 86.3%; inhibition at 10 µM [32]: 92.5%; inhibition at 10 µM [33]: 92.1%; IC50 [34]: 4.76 ± 0.265 µM; inhibition [34]: 52.7 ± 2.94%; inhibition at 10 µM [35]: 91.7%; inhibition at 10 µM [36]: 95.2%
